Test results taken from US20240316059A1, “PEPTIDE DRUG CONJUGATES” (Oncopeptides AB, priority 2021, published 2024).
Where two headings read alike, the source gives them in different places.

Assays:
SC-1 = test: In vitro cytotoxicity, SC-1 (B cell Lymphoma); format: cell-based; conditions: Homo sapiens, SC-1; 72 h, CellTiter-Glo 2.0; read-out: Cytotoxicity IC50, SC-1
Experimental: (§1) All cells were cultivated in RPMI medium 1640 (IX). All media was supplemented with 10 μg/μl penicillin/streptomycin, 10% heat inactivated FBS, 0.1 mM Sodium Pyruvate, 1×MEM NEAA (ThermoFisher) and 1 mM HEPES. The DERL-2 cells had higher FBS (20%) and 40 ng/mL IL-2 was added. hPBMCs were thawed and allowed to acclimatise overnight and then stimulated with 10 μg/mL PHA-M and 40 ng/mL IL-2 for 4 hours before being exposed to test compounds. All cells, except for hPBMCs, were grown to reach log phase before being exposed to the test compounds.
(§2) Test compounds were dissolved in 100% DMSO and added to a 384 assay plate. Additional DMSO was added to maintain the same final DMSO concentration (0.2%) in all wells. 25 μL cell suspension with a concentration of 100000 cells/mL was added to each well. The cells were cultured in a CO2 incubator at 37° C. for 72 h. Plates were equilibrated to room temperature for 30 minutes before adding 20 μL CellTiter-Glo® 2.0 (Promega) reagent to all wells. The plate was then allowed to stabilize for 20 minutes before recording the luminescence (Em filter 700 nm) in an Envision plate reader.

THP-1 = test: In vitro cytotoxicity, THP-1 (Acute Myeloid Leukemia); format: cell-based; conditions: Homo sapiens, THP-1; 72 h, CellTiter-Glo 2.0; read-out: Cytotoxicity IC50, THP-1
Experimental: as §1, §2

EJM = test: In vitro cytotoxicity, EJM (Multiple Myeloma); format: cell-based; conditions: Homo sapiens, 72 h, CellTiter-Glo 2.0, read-out: Cytotoxicity IC50, EJM
Experimental: as §1, §2

KMS-12-BM = test: In vitro cytotoxicity, KMS-12-BM (Multiple Myeloma); format: cell-based; conditions: Homo sapiens, 72 h, CellTiter-Glo 2.0, read-out: Cytotoxicity IC50, KMS-12-BM
Experimental: as §1, §2

[1] = system: DNA prepared from MM.1S cells (nuclear HPRT and mitochondrial DNA); test: Direct DNA damage, PCR amplification of treated DNA (HPRT and mtDNA primers); format: biochemical, human; conditions: 0.25 μM compound, 30 minutes, 37° C., 1 μg DNA
Experimental: Method: DNA was prepared from MM.1S cells by QIAGEN genomic tip 20/G according to protocol described in Furda et al., Methods Mol Biol, 2012. 1 μg of DNA was treated with 0.25 μM compound for 30 minutes at 37° C. DMSO was used as control treatment. 20 ng of the treated DNA was PCR amplified using Phusion Hot Start II High Fidelity PCR Master Mix (Thermo Scientific) and primers directed to either HPRT or primers directed to mitochondrial DNA (mtDNA) was used, generating 10.4 or 8.9 kb fragments, respectively. The PCR reactions were separated on a 1% agarose gel and visualized by ChemiDoc™ MP Imaging System (BioRad). Example compounds 1, 2 and 38 were investigated, as were compounds 18 and 20, which are metabolites of compound 1. They were compared with bendamustine, melphalan and DMSO control. The results for compounds 1, 2, 18 and 20 with the HPRT primers are shown in FIG. 4(A); the results with the mtDNA primers are shown in FIG. 4(B).

DERL-2 = test: In vitro cytotoxicity, DERL-2 (T cell Lymphoma); format: cell-based; conditions: Homo sapiens, 72 h, CellTiter-Glo 2.0, 20% FBS, 40 ng/mL IL-2, read-out: Cytotoxicity IC50, DERL-2
Experimental: as §1, §2

U266 = test: In vitro cytotoxicity, U266 (Multiple Myeloma); format: cell-based; conditions: Homo sapiens, U-266; 72 h, CellTiter-Glo 2.0; read-out: Cytotoxicity IC50, U266
Experimental: as §1, §2

[2] = In vitro cytotoxicity, human peripheral blood mononuclear cells; format: cell-based; conditions: CellTiter-Glo 2.0, stimulated with PHA-M and IL-2, read-out: Cytotoxicity IC50, hPBMC
Experimental: as §1, §2

[3] = In vitro cytotoxicity, BJ fibroblasts (normal cells); format: cell-based; conditions: human, CellTiter-Glo 2.0
Experimental: as §1, §2

OPM-2 = test: In vitro cytotoxicity, OPM-2 (Multiple Myeloma); format: cell-based; conditions: Homo sapiens, OPM-2; 72 h, CellTiter-Glo 2.0; read-out: Cytotoxicity IC50, OPM-2
Experimental: as §1, §2

MM.1S cells [4] = test: Cellular retention/efflux: intracellular and extracellular concentrations by LC-MS/MS; format: in vitro ADME, human; conditions: metabolites measured after treatment with the parent Example compound
Experimental: Methods: MMA1S cells at 2×10^6 cells/mL were seeded at 250 μL per well in a 96-well plate. Cells were incubated in the presence of a test compound for 5, 15, and 60 min before pelleting cells by centrifugation at +4° C. for 5 min. Cell media was immediately harvested to a second plate and stored at −80° C. until further analysis. Pelleted cells were washed once with ice cold PBS before storage at −80° C. until further analysis.
Cells were lysed and protein in the media were precipitated using acetonitrile dimethylformamide, 9:1 containing internal standard. Samples were centrifuged and the supernatant was analyzed with LC-MS/MS (ACQUITY UPLC-Xevo TQ-S micro) to determine compound concentration.
Example compound 1, bendamustine and melphalan were used as test compounds.
Method: Method described in Biological example 3.
Example compounds 1, 2, 3, 4, 6, 7 and 10 were investigated. Intracellular metabolites are formed from all compounds tested. The compound used for cell treatment was metabolised to the ester-hydrolysed compound (here called Metabolite A) and to the amide-hydrolysed compound (called Metabolite B). The example compound structures and the structures of the two metabolites for the respective compounds were as shown in Table 4. The Metabolites B formed under the conditions tested were compounds with structure as Examples 17 and 18: […]

RPMI-8226 = test: In vitro cytotoxicity, RPMI-8226 (Multiple Myeloma, resistant); format: cell-based; conditions: Homo sapiens, RPMI-8226; 72 h, CellTiter-Glo 2.0; read-out: Cytotoxicity IC50, RPMI-8226
Experimental: as §1, §2

AMO-1 = test: In vitro cytotoxicity, AMO-1 (Multiple Myeloma); format: cell-based; conditions: Homo sapiens, AMO1; 72 h, CellTiter-Glo 2.0; read-out: Cytotoxicity IC50, AMO-1
Experimental: as §1, §2

MM.1S cells [5] = test: In vitro cytotoxic potency in MM.1S cell viability assay (CellTiter-Glo); format: cell-based, human; conditions: Homo sapiens, MM1.S, 72 h
Summary of the method: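 Log-phase MM.1S cells in supplemented RPMI 1640 were seeded at 100000 cells/mL with compound (0.2% DMSO final). After 72 h at 37 °C in CO2, viability was measured by CellTiter-Glo 2.0 luminescence.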

SUP-T1 = test: In vitro cytotoxicity, SUP-T1 (T cell Lymphoma); format: cell-based; conditions: Homo sapiens, SUP-T1; 72 h, CellTiter-Glo 2.0; read-out: Cytotoxicity IC50, SUP-T1
Experimental: as §1, §2

## N[C@@H](Cc1ccc(N(CCCl)CCCl)cc1)C(=O)O [Melphalan, melphalan, reference compound]
SC-1
  IC50: 8.64 µM
THP-1
  IC50: 4.31 µM
EJM
  IC50: 40 µM
KMS-12-BM
  IC50: 9.83 µM
[1]
  DNA damage on nuclear and mitochondrial DNA (PCR band): no or very minor effect on DNA damage
DERL-2
  IC50: 1.88 µM
U266
  IC50: 18.9 µM
[2]
  IC50 at 72 h: 3.6 µM
[3]
  IC50 at 72 h: 104 µM
OPM-2
  IC50: 10.2 µM
MM.1S cells [4]; MM.1S cells incubated with test compound 5, 15, 60 min
  Intracellular concentration (in words): low intracellular concentration
MM.1S cells [4]; media of MM.1S cells incubated with test compound 5, 15, 60 min
  Extracellular concentration (in words): high and constant throughout the experiment
RPMI-8226
  IC50: 32.5 µM
AMO-1
  IC50: 8.34 µM
MM.1S cells [5]; read-out: Cytotoxicity IC50, MM.1S
  IC50: 4.25 µM
MM.1S cells [5]; read-out: MM.1S IC50
  IC50: 4.25 µM
SUP-T1
  IC50: 2.96 µM
